Article PMC11576293, “New series of 4,6-diaryl pyrimidines: facile synthesis and antiproliferative activity as dual EGFR/VEGFR-2 inhibitors” (Frontiers in Chemistry, 2024)

How the values were obtained:
HT-29 = experiment: Antiproliferative assay (MTT); assay type: cell-based; details: Homo sapiens, HT-29 (colon), read-out: Antiproliferative activity IC50 ± SEM, HT-29
Excerpt: (§1) The MTT test was employed for this investigation ([Hisham et al., 2022]; [El-Sherief et al., 2019]; [Ramadan et al., 2020]). Table 2 presents the four cancer cell lines’ median inhibitory concentration (IC50) and GI50 (average IC50) values.
(§2) The MTT test was employed for this investigation ([Hisham et al., 2022]; [El-Sherief et al., 2019]; [Ramadan et al., 2020]). The IC50 values were derived from dose-response tests. The reported data are derived from at least two independent studies, each comprising three replicates per concentration. See Supplementary Material A1 for more details.
(§3) (in 0.1% DMSO) were added (in 200 μL medium to yield a final concentration of 0.1% v/v) to the wells of plates. A single compound was designated with four wells followed by incubation of plates for 96h at 37°C. After incubation, medium was removed completely from the plates followed by addition of MTT (0.4 mg/mL in medium) to each well and subsequent incubation of plates for 3h. MTT (along with the medium) was removed and DMSO (150μL) was added to each well of the culture plates, followed by vertexing and subsequent measurement of absorbance (at 540 nm) using microplate reader. The data are shown as percentage inhibition of proliferation in comparison with controls containing 0.1% DMSO.
(§4) 4.2.1.2. Assay for antiproliferative effect […]
(§5) (10%) and 1 µg/mL each of aprotinin, leupeptin and pepstatin for 120 min. The purification was performed either at 4 °C or on ice. To record autophosphorylation level, EGFR kinase assay was carried out on the basis of DELFIA/Time-Resolved Fluorometry. The compounds were first
(§6) (1 picture or pasted object on this page, not shown here)

Panc-1 = experiment: Antiproliferative assay (MTT); assay type: cell-based; details: Homo sapiens, Panc-1 (pancreatic), read-out: Antiproliferative activity IC50 ± SEM, Panc-1
Excerpt: as §1, §2, §3, §4, §5, §6

A-549 = experiment: Antiproliferative assay (MTT); assay type: cell-based; details: Homo sapiens, A549, A-549 (lung), read-out: Antiproliferative activity IC50 ± SEM, A-549
Excerpt: as §1, §2, §3, §4, §5, §6

MCF-7 = experiment: Antiproliferative assay (MTT); assay type: cell-based; details: Homo sapiens, MCF7, MCF-7 (breast), read-out: Antiproliferative activity IC50 ± SEM, MCF-7
Excerpt: as §1, §2, §3, §4, §5, §6

UO-31 = experiment: NCI-60 single-dose screen; assay type: cell-based; details: Homo sapiens, single dose 10 µM, '-' = no inhibition, read-out: % Growth Inhibition
Summary of the method: (§7)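 Single concentration (10 μM) per compound, assayed by the NCI DTP against its 60-line panel covering leukemia, lung, colon, CNS, melanoma, ovarian, renal, prostate and breast cancers.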

NCI/ADR-RES = experiment: NCI-60 single-dose screen; assay type: cell-based; details: Homo sapiens, single dose 10 µM, '-' = no inhibition, read-out: % Growth Inhibition
Summary of the method: as §7

LOX IMVI = experiment: NCI-60 single-dose screen; assay type: cell-based; details: Homo sapiens, single dose 10 µM, '-' = no inhibition, read-out: % Growth Inhibition
Summary of the method: as §7

HCT-15 = experiment: NCI-60 single-dose screen; assay type: cell-based; details: Homo sapiens, single dose 10 µM, '-' = no inhibition, read-out: % Growth Inhibition
Summary of the method: as §7

OVCAR-3 = experiment: NCI-60 single-dose screen; assay type: cell-based; details: Homo sapiens, single dose 10 µM, '-' = no inhibition, read-out: % Growth Inhibition
Summary of the method: as §7

MOLT-4 = experiment: NCI-60 single-dose screen; assay type: cell-based; details: Homo sapiens, single dose 10 µM, '-' = no inhibition, read-out: % Growth Inhibition
Summary of the method: as §7

UACC-62 = experiment: NCI-60 single-dose screen; assay type: cell-based; details: Homo sapiens, single dose 10 µM, '-' = no inhibition, read-out: % Growth Inhibition
Summary of the method: as §7

CAKI-1 = experiment: NCI-60 single-dose screen; assay type: cell-based; details: Homo sapiens, single dose 10 µM, '-' = no inhibition, read-out: % Growth Inhibition
Summary of the method: as §7

MDA-MB231/ATCC = experiment: NCI-60 single-dose screen; assay type: cell-based; details: Homo sapiens, MDA-MB-231, single dose 10 µM, '-' = no inhibition, read-out: % Growth Inhibition
Summary of the method: as §7

SNB-19 = experiment: NCI-60 single-dose screen; assay type: cell-based; details: Homo sapiens, single dose 10 µM, '-' = no inhibition, read-out: % Growth Inhibition
Summary of the method: as §7

NCI-H522 = experiment: NCI-60 single-dose screen; assay type: cell-based; details: Homo sapiens, single dose 10 µM, '-' = no inhibition, read-out: % Growth Inhibition
Summary of the method: as §7

Row | Structure (SMILES) | IC50 (HT-29) [nM] | IC50 (Panc-1) [nM] | IC50 (A-549) [nM] | IC50 (MCF-7) [nM] | inhibition at 10 µM (UO-31) [%] | inhibition at 10 µM (NCI/ADR-RES) [%] | inhibition at 10 µM (LOX IMVI) [%] | inhibition at 10 µM (HCT-15) [%] | inhibition at 10 µM (OVCAR-3) [%] | inhibition at 10 µM (MOLT-4) [%] | inhibition at 10 µM (UACC-62) [%] | inhibition at 10 µM (CAKI-1) [%] | inhibition at 10 µM (MDA-MB231/ATCC) [%] | inhibition at 10 µM (SNB-19) [%] | inhibition at 10 µM (NCI-H522) [%] | melting point [°C]
1 | C=CCSc1nc(-c2ccc(OC)cc2)cc(-c2cccc(OC)c2)n1 [Compound 20, 2-(Allylthio)-6-(3-methoxyphenyl)-4-(4-methoxyphenyl)pyrimidine] | 72 ± 4 | 70 ± 6 | 70 ± 6 | 73 ± 6 | 13.2 | < 0 | 7.36 | 5.58 | < 0 | 12.5 | 18.8 | 7.19 | < 0 | 5.77 | 8.49 | 258 to 260
2 | COc1ccc(-c2cc(-c3ccc(Cl)cc3)nc(SC)n2)cc1OC [Compound 23, 4-(4-Chlorophenyl)-6-(3,4-dimethoxyphenyl)-2-(methylthio)pyrimidine] | 48 ± 4 | 47 ± 4 | 48 ± 4 | 50 ± 4 | 22.9 | 14.9 | 15 | 28 | < 0 | 26.7 | < 0 | 24 | 23.2 | 3.67 | 31.2 | 228 to 229
3 | CCSc1nc(-c2ccc(Cl)cc2)cc(-c2ccc(OC)c(OC)c2)n1 [Compound 24, 4-(4-Chlorophenyl)-2-(ethylthio)-6-(3,4-dimethoxyphenyl)pyrimidine] | 31 ± 3 | 30 ± 3 | 30 ± 3 | 33 ± 3 | 25.8 | 17.5 | 11.9 | 30.7 | < 0 | 37 | < 0 | 27.5 | 16.9 | 3.01 | 2.36 | 229 to 231
4 | CCCSc1nc(-c2ccc(Cl)cc2)cc(-c2ccc(OC)c(OC)c2)n1 [Compound 25, 4-(4-Chlorophenyl)-6-(3,4-dimethoxyphenyl)-2-(propylthio)pyrimidine] | 32 ± 3 | 32 ± 3 | 32 ± 3 | 34 ± 3 | 8.18 | 11.2 | 1.51 | 20.9 | < 0 | 19.1 | 3.23 | 13.5 | 16.2 | < 0 | 8 | 217 to 219
5 | COc1ccc(-c2cc(-c3ccc(Cl)cc3)nc(SC(C)C)n2)cc1OC [Compound 26, 4-(4-Chlorophenyl)-2-(isopropylthio)-6-(3,4-dimethoxyphenyl)pyrimidine] | 42 ± 3 | 40 ± 3 | 40 ± 3 | 42 ± 3 | 15.2 | < 0 | 4.14 | 4.73 | < 0 | 5.51 | 17.4 | 9.22 | 4.5 | 3.77 | 9.05 | 233 to 253
6 | C=CCSc1nc(-c2ccc(Cl)cc2)cc(-c2ccc(OC)c(OC)c2)n1 [Compound 27, 2-(Allylthio)-4-(4-chlorophenyl)-6-(3,4-dimethoxyphenyl)pyrimidine] | 60 ± 6 | 58 ± 5 | 56 ± 5 | 60 ± 6 | 22.9 | 21.8 | 7.11 | 18.8 | < 0 | 28.5 | 26 | 13.1 | 7.53 | 8.39 | 16.4 | 244 to 246
7 | COc1ccc(-c2cc(-c3ccc(Cl)cc3)nc(SCc3ccccc3)n2)cc1OC [Compound 28, 2-(Benzylthio)-4-(4-chlorophenyl)-6-(3,4-dimethoxyphenyl)pyrimidine] | 41 ± 3 | 40 ± 3 | 39 ± 3 | 43 ± 3 | 24.8 | 14.3 | 8.32 | 27.6 | < 0 | 32.8 | < 0 | 25.7 | 23 | 4.06 | 31.8 | 239 to 241
8 | COc1ccc(CSc2nc(-c3ccc(Cl)cc3)cc(-c3ccc(OC)c(OC)c3)n2)cc1 [Compound 29, 2-(4-Methoxybenzylthio)-4-(4-chlorophenyl)-6-(3,4-dimethoxyphenyl)pyrimidine] | 24 ± 2 | 23 ± 2 | 23 ± 2 | 25 ± 2 | 33.1 | 32.1 | 20.9 | 42.1 | < 0 | 46.5 | 38.7 | 23.1 | 30.3 | 14.2 | 23.1 | 279 to 281
